# Measured values: patent publication EP0330052B1, “Use of benzimidazoles for preparing a medicine with an anti-ischemial activity on the heart, and combinations with betablockers or bradycardics” (Dr. Karl Thomae GmbH, priority 1988, dated 1989)
# Experiments:
# Kaninchen = assay: Influence on infarct size in an ischaemia/reperfusion model (60 min coronary ligation, 30 min reperfusion); format: in vivo; conditions: i.v. 10 min before occlusion
# Experimental: 1. Beeinflussung der Infarktgröße an einem Ischämie/Reperfusionsmodell
# Kaninchen (Russen beiderlei Geschlechts, Körpergewicht 2-2,5 kg) werden mit einem Bolus (40-60 mg/kg i.p.) und nachfolgender Dauerinfusion (10 |g/kg/h) Pentobarbital narkotisiert. Die Körpertemperatur wird bei 38°C gehalten. Nach endotrachealer Intubation werden die Tiere druckkonstant mit einer Mischung aus 50 % O₂ und 50 % N₂ beatmet. Die Kontrolle der Blutgase und des Blut pH erfolgt mit einem Blutgasanalyzer (ABL-2, Radiometer). Zur Messung des linksventrikulären Druckes wurde ein Druckwandler über die A-carotis in die linke Herzkammer geschoben. Der Aortendruck wird über einen via A. femoralis eingeführten Katheter erfaßt. Nach Eröffnung des Thorax im 5. linken Interkostalraum wird die linke absteigende Koronararterie für 60 Minuten ligiert und danach die Koronararterie wieder eröffnet. Nach 30minütiger Reperfusion wird die Arterie an derselben Stelle wieder verschlossen und das normal perfundierte Myokard mit Patentblau (in den linken Vorhof injiziert) angefärbt. Das Herz wird danach in drei Scheiben geschnitten und das bisher ungefärbte, vorher ischämische Gewebe, wird in einem Puffer mit Triphenyltetrazolium angefärbt. Überlebende Herzmuskelreale färben sich ziegelrot, während totes Gewebe bleich erscheint. […]
# Hunde = assay: Effect on collateral-dependent residual myocardial perfusion after repeated complete occlusion of the circumflex branch of the left coronary artery (radioactive microspheres); format: in vivo; conditions: relative to third occlusion
# Experimental: 2. Wirkung auf die kollateralabhängige Restperfusion des Myokards nach wiederholter vollständiger Okklusion des umschlingenden Astes der linken Koronararterie
# Hunde (mischrassig, beiderlei Geschlechts, 20-30 kg Körpergewicht) werden mit Morphin (1 mg/kg s.c.) prämediziert und mit Pentobarbital (i.v. 20 mg/kg Bolus gefolgt von einer Dauerinfusion von 8 mg/kg) narkotisiert. Die Körpertemperatur wird mit einem Heizkissen bei 38°C gehalten. Nach endotrachealer Intubation werden die Tiere mit einem Gemisch von 25 % O₂ und 75 % N₂O beatmet. Der linksventrikuläre Druck wird mit einem Mikrodruckwandler gemessen, während der Aortendruck über einen via A. femoralis vorgeschobenen Katheter erfaßt wird. Nach Thoraxeröffnung im linken 5. Interkostalraum wird der Ramus circumflexus der linken Koronararterie freipärpariert und der Meßkopf eines elektromagnetischen Flowmeters darumgelegt. Zur Injektion von radioaktiven Mikrosphären (regionale Perfusionsmessung) wird der linke Vorhof kanüliert. Die Referenzprobe wird über die linke A. femoralis 2 Minuten lang bei einem Fluß von 6 ml/Minute gezogen. Die Registrierung der hämodynamischen Daten erfolgt auf einem IFD Polygraphen.
# Nach einer 30minütigen Äquilibrierungsphase wird der Ramus circumflexus 6 mal im Abstand von jeweils 30 Minuten für 4 Minuten verschlossen. Dabei wird während der 4. Minute eine regionale Perfusionsbestimmung durchgeführt. Die Perfusion des Versorgungsbereiches des Ramus circumflexus ist abhängig von koronaren Kollateralgefäßen. Für die Beurteilung der Kollateralperfusion werden die besonders ischämiegefährdeten subendocardialen Herzmuskelschichten herangezogen. Als Bezugswert vor Substanzgabe dient der jeweilige Flußwert der dritten Okklusion.
# [1] = Acute toxicity (LD50), mouse; conditions: in vivo, Maus
# [2] = Acute toxicity (LD50), rat; conditions: in vivo, iv, Ratte, read-out: LD₅₀ i.v.
# [3] = po, read-out: LD₅₀ p.o. (converted)
Structure (SMILES),% Änderung des Kollateralflusses pro Herzschlag im subendocardialen ischämischen Myocard (Hunde; Dosis i.v. 30 µg/kg),"LD50 ([1]; iv, read-out: LD₅₀ i.v.)","LD50 [1, 3]",LD50 [2],further results
"CC(C)NCC(O)COc1ccc(CC(N)=O)cc1 (stereo not shown) [Atenolol, reference compound]",–,–,–,–,"% des ischämischen Myokards infarziert (Kaninchen; Dosis 0,3 mg/kg): 63%"
"Cc1nc2ccc(C3=NNC(=O)CC3C)cc2[nH]1 (stereo not shown) [C, 2-Methyl-5-(5-methyl-3-oxo-4,5-dihydro-2H-6-pyridazinyl)-benzimidazol]",+178%,–,–,–,% Änderung des Kollateralflusses pro Herzschlag im subendocardialen ischämischen Myocard (Hunde; Dosis i.v. 10 µg/kg): +101%
"COc1ccc(CCN2CCCC(CN3CCc4cc(OC)c(OC)cc4CC3=O)C2)cc1OC (stereo not shown) [D, 3-[(N-(2-(3,4-Dimethoxyphenyl)-ethyl)-piperidin-3-yl)-methyl]-7,8-dimethoxy-1,3,4,5-tetrahydro-2H-3-benzazepin-2-on]",–,50 mg/kg,720 mg/kg,–,–
"COc1ccc(-c2nc3ccc(C4=NNC(=O)CC4C)cc3[nH]2)cc1 (stereo not shown) [Verbindung A, 2-(4-Methoxyphenyl)-5-(5-methyl-3-oxo-4,5-dihydro-2H-6-pyridazinyl)-benzimidazol]",+100%,–,600 mg/kg,72 mg/kg,"% des ischämischen Myokards infarziert (Kaninchen; Dosis 0,5 mg/kg): 34%"
"CC1CC(=O)NN=C1c1ccc2nc(-c3ccc(O)cc3)[nH]c2c1 (stereo not shown) [Verbindung B, 2-(4-Hydroxyphenyl)-5-(5-methyl-3-oxo-4,5-dihydro-2H-6-pyridazinyl)-benzimidazol]",–,–,–,> 100 mg/kg,% Änderung des Kollateralflusses pro Herzschlag im subendocardialen ischämischen Myocard (Hunde; Dosis i.v. 95 µg/kg): +182%
"COc1ccc(CCN(C)CCCN2CCc3cc(OC)c(OC)cc3CC2=O)cc1OC [Verbindung E, 1-(7,8-Dimethoxy-1,3,4,5-tetrahydro-2H-3-benzazepin-2-on-3-yl)-3-[N-methyl-N-(2-(3,4-dimethoxyphenyl)-ethyl)-amino]propan]",–,89 mg/kg,1350 mg/kg,–,–
